Consider 15 molecules from ChEMBL document CHEMBL1136769 (J Med Chem, 2003).

Assay [1] deals with Sodium-dependent dopamine transporter (Macaca mulatta). Description: Inhibition of [3H]WIN-35428 Binding to the Dopamine Transporter in Rhesus (Macaca mulatta) orCynomolgus Monkey (Macaca fascicularis) Caudate-Putamen.
The nature of assay [2]: Inhibition of [3H]citalopram Binding to the Serotonin Transporter in Rhesus (Macaca mulatta) or Cynomolgus Monkey (Macaca fascicularis) Caudate-Putamen.

A value given as a limit tells only on which side of the number the result lay.

Consider `COC(=O)[C@@H](c1ccccc1)[C@@H]1CCCCO1`, for which the half-maximal inhibitory concentration (IC50) (as a rule, the concentration that gives 50% inhibition) is 3000 nM in assay [1] and over 100 µM in assay [2].
The like results for `COC(=O)C(c1ccc(Cl)c(Cl)c1)C1CCCC1` (configuration not stated) were, in that order, 47 nM and 7 µM.
Take `COC(=O)[C@@H](c1ccc2ccccc2c1)[C@@H]1CCCCO1`: the IC50 in assay [1] was 430 nM; in assay [2], 1 µM.
For `N#CC(c1ccc(Cl)c(Cl)c1)C1CCCC1` (configuration not stated), the results for the IC50 in assay [1] and in assay [2] were 128 nM and 10 µM, respectively.
Consider `COC(=O)C(c1ccc(Cl)c(Cl)c1)C1CCCCC1` (configuration not stated), for which the IC50 in assay [2] worked out at 12 µM.
Same read-out and setting: as for `COC(=O)[C@H](c1ccc(Cl)c(Cl)c1)[C@H]1CCCCO1`, the figure is over 10 µM.
For `N#CC(c1ccc(Cl)c(Cl)c1)C1CCCCC1` (configuration not stated), the IC50 was 127 nM in assay [1] and 8 µM in assay [2].
Take `COC(=O)C(c1ccccc1)C1CCCCN1` (racemic) [METHYLPHENIDATE]: in assay [2], the IC50 was over 100 µM.
Consider `COC(=O)[C@H](c1ccccc1)[C@@H]1CCCCO1` (single isomer, unassigned), for which the values for the IC50 in assay [1] and in assay [2] were 13000 nM and over 100 µM, respectively.
Turning to `COC(=O)[C@@H](c1ccc(Cl)c(Cl)c1)[C@H]1CCCCO1` (single isomer, unassigned), the IC50 in assay [2] worked out at 7.8 µM.
In the case of `COC(=O)[C@H](c1ccc2ccccc2c1)[C@@H]1CCCCO1` (single isomer, unassigned), the figures for the IC50 in assay [1] and in assay [2] were 4000 nM and 10 µM, respectively.
Consider `COC(=O)[C@H](c1ccc(Cl)c(Cl)c1)[C@@H]1CCCCO1` (single isomer, unassigned; 5c), for which the IC50 in assay [2] was found to be 7.79 µM.
As for `COC(=O)[C@H](c1ccc(Cl)c(Cl)c1)[C@@H]1CCCCO1` (single isomer, unassigned; 15), the 50% inhibitory concentration (IC50) in assay [2] was over 10 µM.
Same read-out and setting: next, `COC(=O)[C@@H](c1ccc(Cl)c(Cl)c1)[C@@H]1CCCCO1` (stereo in doubt; 4c): 2.18 µM; `COC(=O)[C@@H](c1ccc(Cl)c(Cl)c1)[C@@H]1CCCCO1` (stereo in doubt; 12): 1.66 µM.
